In patent US9227960B2, “Bisaryl (thio)morpholine derivatives as S1P modulators” (ABBVIE B.V., priority 2010, dated 2016):
Counter-ions that a name gives are not always drawn.

What was measured:
human S1P5 receptor = target: T1, human S1P5 receptor (Homo sapiens, UniProt Q9H228); test: In vitro functional activity (agonism) on human S1P5 receptors, CHO-human-S1P5-Aequorin assay; format: cell-based; conditions: CHO-human-S1P5-Aequorin cells, luminescence, read-out: S1P5 pEC50 (converted)
T1 construct: host or cells: CHO (AequoScreen recombinant cell line, co-expressing mitochondrially targeted apo-Aequorin)
T1 sequence (Q9H228 whole entry): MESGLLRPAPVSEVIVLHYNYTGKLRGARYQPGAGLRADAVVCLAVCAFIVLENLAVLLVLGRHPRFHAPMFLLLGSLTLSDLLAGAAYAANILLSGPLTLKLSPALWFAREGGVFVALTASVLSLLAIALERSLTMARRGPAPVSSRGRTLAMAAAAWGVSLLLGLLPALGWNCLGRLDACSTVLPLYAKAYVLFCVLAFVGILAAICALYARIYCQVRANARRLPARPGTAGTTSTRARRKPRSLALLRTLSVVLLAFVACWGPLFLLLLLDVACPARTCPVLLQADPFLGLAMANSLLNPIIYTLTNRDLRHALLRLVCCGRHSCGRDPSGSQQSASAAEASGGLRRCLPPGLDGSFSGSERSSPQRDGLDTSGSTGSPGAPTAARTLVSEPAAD
Excerpt: In Vitro Functional Activity (Agonism) on Human S1P5 Receptors
(§1) The CHO-human-S1P5-Aecorin assay was bought from Euroscreen, Brussels (Euroscreen, Technical dossier, Human Lysophospholid S1P5 (Edg8) receptor, DNA clone and CHO AequoScreen™ recombinant cell-line, catalog no: ES-593-A, September 2006). Human-S1P5-Aequorin cells express mitochondrial targeted apo-Aequorin. Cells have to be loaded with coelanterazine, in order to reconstitute active Aequorin. After binding of agonists to the human S1P5 receptor the intracellular calcium concentration increases and binding of calcium to the apo-Aequorin/coelenterazine complex leads to an oxidation reaction of coelenterazine, which results in the production of apo-Aequorin, coelenteramide, CO2 and light (λmax 469 nm). This luminescent response is dependent on the agonist concentration. Luminescence is measured using the MicroBeta Jet (Perkin Elmer). Agonistic effects of compounds are expressed as pEC50. Compounds were tested at a 10 points half log concentration range, and 3 independent experiments were performed in single point's measurements.

human S1P3 receptor = target: T2, human S1P3 receptor (Homo sapiens, UniProt Q99500); test: In vitro functional activity (agonism) on human S1P3 receptors, CHO-human-S1P3-Aequorin assay; format: cell-based; conditions: CHO/Gα16/AEQ/h-S1P3 cells, luminescence, read-out: S1P3 pEC50 (converted)
T2 construct: cell line established at Solvay Pharmaceuticals; host or cells: CHO K1 (CHO/Gα16/AEQ/h-S1P3)
T2 sequence (Q99500 whole entry): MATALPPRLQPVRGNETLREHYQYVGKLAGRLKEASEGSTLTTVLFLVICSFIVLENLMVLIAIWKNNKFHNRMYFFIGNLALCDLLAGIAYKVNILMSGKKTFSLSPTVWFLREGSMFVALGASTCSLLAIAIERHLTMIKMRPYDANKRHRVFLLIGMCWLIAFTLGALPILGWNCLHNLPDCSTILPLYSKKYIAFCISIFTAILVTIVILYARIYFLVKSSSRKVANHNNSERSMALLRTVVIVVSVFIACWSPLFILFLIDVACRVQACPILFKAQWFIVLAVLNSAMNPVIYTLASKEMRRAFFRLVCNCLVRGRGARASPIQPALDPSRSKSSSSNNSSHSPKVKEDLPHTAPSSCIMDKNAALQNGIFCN
Excerpt: In Vitro Functional Activity (Agonism) on Human S1P3 Receptors
The CHO-human-S1P3-Aeqorin assay (CHO/Gα16/AEQ/h-S1P3) was established at Solvay Pharmaceuticals. The plasmid DNA coding for the S1P3 receptor (accession number in GenBank NM_005226 was purchased from UMR cDNA resource Centre (Rolla, Mo.). The pcDNA3.1/hS1P3 construct carrying the mitochondrially targeted apo-Aeqorin and Gα16 protein was transfected in CHO K1 cell-line.
as §1, with “Human-S1P3-Aequorin” for “The CHO-human-S1P5-Aecorin assay was bought from Euroscreen, Brussels (Euroscreen, Technical dossier, Human Lysophospholid S1P5 (Edg8) receptor, DNA clone and CHO AequoScreen™ recombinant cell-line, catalog no: ES-593-A, September 2006). Human-S1P5-Aequorin”, “S1P3” for “S1P5”

human S1P1 = target: T3, human S1P1 (Homo sapiens, UniProt P21453); test: In vitro functional activity (agonism) on human S1P1 receptors, CHO-K1-Human S1P1-c-AMP assay; format: cell-based; conditions: CHO-K1 cells expressing human S1P1, cAMP with Forskolin (HTRF), read-out: S1P1 pEC50 (converted)
T3 construct: host or cells: CHO-K1
T3 sequence (P21453 whole entry): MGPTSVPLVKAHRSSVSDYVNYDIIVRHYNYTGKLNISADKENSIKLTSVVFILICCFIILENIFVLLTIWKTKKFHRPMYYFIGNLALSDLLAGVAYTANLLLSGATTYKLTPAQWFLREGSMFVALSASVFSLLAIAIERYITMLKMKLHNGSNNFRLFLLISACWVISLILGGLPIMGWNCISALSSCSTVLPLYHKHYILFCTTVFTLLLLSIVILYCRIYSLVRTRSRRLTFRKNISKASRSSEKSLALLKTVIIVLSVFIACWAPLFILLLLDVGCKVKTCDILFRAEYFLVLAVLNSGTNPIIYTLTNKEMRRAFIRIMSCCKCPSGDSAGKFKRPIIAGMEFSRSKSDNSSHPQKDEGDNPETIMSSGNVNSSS
Description: In Vitro Functional Activity (Agonism) on Human S1P1 Receptors
The CHO-K1-Human S1P1-c-AMP assay was performed at Euroscreenfast, Brussels (Euroscreen, Human S1P1 coupling […] (Edg1) receptor, catalog no: FAST-0197C, December 2009).
Recombinant CHO-K1 cells expressing human S1P1, grown to mid-log Phase in culture media without antibiotics, detached, centrifuged and re-suspended. For agonist testing cells are mixed with compound and Forskolin and incubated at room temperature. Cells are lyses and cAMP concentration are estimated, according to the manufacturer specification, With the HTRF kit from CIS-BIO International (cat n° 62AM2PEB).
Agonistic effects of compounds are expressed as a percentage of the activity of the reference compound at its EC100 concentration, EC50 is calculated and results are reported as pEC50. Compounds were tested at a 10 points half log concentration range duplicated in 1 experiment.

Row | SMILES | melting point [°C] | EC50 (human S1P5 receptor) [nM] | EC50 (human S1P3 receptor) [nM] | EC50 (human S1P1) [nM]
1 | Cl.O=C(O)CCN1CCOC(c2ccc(Oc3c(Cl)cccc3Cl)c(Cl)c2)C1 (centres unmarked) | 224 to 227 | – | – | –
2 | Cl.O=C(O)CCN1CCOC(c2ccc(Oc3c(Cl)cccc3Cl)cc2F)C1 (centres unmarked) | 207 to 209 | – | – | –
3 | Cl.O=C(O)CCN1CCOC(c2ccc(Oc3c(Cl)cccc3Cl)cc2C(F)(F)F)C1 (centres unmarked) | 135 to 136 | – | – | –
4 | Cl.O=C(O)CCN1CCSC(c2ccc(Oc3ccccc3Cl)cc2)C1 (centres unmarked) | 155 to 160 | – | – | –
5 | Cc1cccc(Oc2ccc(C3CN(CCC(=O)O)CCS3)cc2)c1C.Cl (centres unmarked) | 178 to 183 | – | – | –
6 | Cc1cccc(Cl)c1Oc1ccc(C2CN(CCC(=O)O)CCS2)cc1.Cl (centres unmarked) | 192.5 to 195 | – | – | –
7 | Cc1cccc(C)c1Oc1cccc(C2CN(CCC(=O)O)CCO2)c1 (centres unmarked) (as salt: hydrochloride) | 219 to 223 | – | – | –
8 | Cc1cccc(Oc2ccc(C3CN(CCCC(=O)O)CCO3)cc2)c1C (centres unmarked) (as salt: hydrochloride) [Compound 87, 4-{2-[4-(2,3-Dimethyl-phenoxy)-phenyl]-morpholin-4-yl}-butyric acid hydrochloride] | 225 to 227 | – | – | –
9 | Cc1cccc(C)c1Nc1ccc(C2CN(CCC(=O)O)CCO2)cc1 (centres unmarked) [Compound 2, 3-{2-[4-(2,6-Dimethyl-phenylamino)-phenyl]-morpholin-4-yl}-propionic acid hydrochloride] | – | 631 | > 10000 | –
10 | O=C(O)CCN1CCOC(c2ccc(C(=O)c3c(Cl)cccc3Cl)cc2)C1 (centres unmarked) [Compound 6, 3-{2-[4-(2,6-Dichloro-benzoyl)-phenyl]-morpholin-4-yl}-propionic acid hydrochloride] | – | 501 | > 10000 | > 3160
11 | Cc1ccc(Oc2ccc(C3CN(CCC(=O)O)CCO3)cc2)cc1Cl (centres unmarked) [Compound 15, 3-{2-[4-(3-Chloro-4-methyl-phenoxy)-phenyl]-morpholin-4-yl}-propionic acid hydrochloride] | – | 501 | > 10000 | –
12 | CCCCc1ccc(Oc2ccc(C3CN(CCC(=O)O)CCO3)cc2)cc1 (centres unmarked) [Compound 26, 3-{2-[4-(4-Butyl-phenoxy)-phenyl]-morpholin-4-yl}-propionic acid hydrochloride] | – | 2000 | 5010 | –
13 | O=C(O)CCN1CCOC(c2ccc(Oc3cccc4ccccc34)cc2)C1 (centres unmarked) [Compound 29, 3-{2-[4-(Naphthalen-1-yloxy)-phenyl]-morpholin-4-yl}-propionic acid hydrochloride] | – | 63.1 | > 10000 | –
14 | O=C(O)CCN1CCOC(c2ccc(Oc3ccccc3C(F)(F)F)cc2)C1 (centres unmarked) [Compound 35, 3-{2-[4-(2-Trifluoromethyl-phenoxy)-phenyl]-morpholin-4-yl}-propionic acid hydrochloride] | – | 200 | > 10000 | –
15 | Cc1ccc(Oc2ccc(C3CN(CCC(=O)O)CCO3)cc2)cc1C (centres unmarked) [Compound 47, 3-{2-[4-(3,4-Dimethyl-phenoxy)-phenyl]-morpholin-4-yl}-propionic acid hydrochloride] | – | 200 | > 10000 | –
16 | O=C(O)CCN1CCOC(c2ccc(Oc3ccc(OCc4ccccc4)cc3)cc2)C1 (centres unmarked) [Compound 57, 3-{2-[4-(4-Benzyloxy-phenoxy)-phenyl]-morpholin-4-yl}-propionic acid hydrochloride] | – | 2000 | > 10000 | –
17 | Cc1ccc(Oc2ccc(C3CN(CCC(=O)O)CCO3)cc2)cc1 (centres unmarked) [Compound 64, 3-[2-(4-p-Tolyloxy-phenyl)-morpholin-4-yl]-propionic acid hydrochloride] | – | 1580 | > 10000 | –
18 | O=C(O)CCN1CCOC(c2ccc(Oc3ccc4ccccc4c3)cc2)C1 (centres unmarked) [Compound 68, 3-{2-[4-(Naphthalen-2-yloxy)-phenyl]-morpholin-4-yl}-propionic acid hydrochloride] | – | 631 | > 10000 | –
19 | CC1(C)CN(CCC(=O)O)CC(c2ccc(Oc3c(Cl)cccc3Cl)cc2)O1 (centres unmarked) [Compound 73, 3-{6-[4-(2,6-Dichloro-phenoxy)-phenyl]-2,2-dimethyl-morpholin-4-yl}-propionic acid] | – | 158 | – | > 3160
20 | Cc1cccc(Oc2ccc(C3(C)CN(CCC(=O)O)CCO3)cc2)c1C (centres unmarked) [Compound 80, 3-{2-[4-(2,3-Dimethyl-phenoxy)-phenyl]-2-methyl-morpholin-4-yl}-propionic acid hydrochloride] | – | 631 | > 10000 | > 31600
21 | Cc1cccc(Oc2ccc(C3CN(CCCC(=O)O)CCO3)cc2)c1C (centres unmarked) [Compound 87, 4-{2-[4-(2,3-Dimethyl-phenoxy)-phenyl]-morpholin-4-yl}-butyric acid hydrochloride] | – | 1000 | – | –
